Measurements taken from US10619195B2, “Gene-expression profiling with reduced numbers of transcript measurements” (Massachusetts Institute of Technology, priority 2010, dated 2020).

Assays:
[1] = tested on: canonical NF-κB signaling pathway (BIOCARTA_NFKB_PATHWAY); assay: Gene-Set Enrichment Analysis of L1000 profiles from macrophages treated with LPS; format: cell-based; details: primary human macrophages, LPS versus vehicle control; L1000 inferred profiles; 512 gene sets tested; p<0.001
Procedure: The expression levels of 1,000 cluster centroid transcripts were measured in primary human macrophages following treatment with lipopolysaccharide (LPS) or vehicle control, and used to create gene-expression profiles composed of expression levels for 22,268 transcripts, according to the L1000 methods described in Example IV.
LPS is known to be a potent activator of the NF-KB transcription-factor complex (Qin et al., “LPS induces CD40 gene expression through the activation of NF-κB and STAT-1a in macrophages and microglia” Blood 106: 3114-3122 2005).

[2] = tested on: histone-deacetylase (HDAC) inhibitor query signature; assay: L1000 analog of Connectivity Map (1,000 landmark transcripts by LMF plus inference) queried with an HDAC-inhibitor query signature; format: cell-based, human; details: L1000 dataset, MCF7 cells; published HDAC-inhibitor query signature (Glaser et al.); n=8, p-value<0.001; highest scoring perturbagen
From the text: This example described one method for the generation of transcriptome-wide gene-expression profiles using measurement of the expression levels of a sub-transcriptome number of cluster centroid landmark transcripts. The present method uses the LMF moderate multiplex gene-expression analysis platform described by Peck et al. (“A method for high-throughput gene expression signature analysis” Genome Biology 7:R61 2006), the Luminex FlexMAP 3D optically-addressed microspheres and flow-cytometric detection system, 1,000 cluster centroid landmark transcripts (and corresponding gene-specific sequences) validated for LMF from Example III (above), a corresponding dependency matrix from Example III (above), 50 empirically-determined invariant transcripts with expression levels spanning the range of those observed, and 1,050 barcode sequences developed. The FlexMAP 3D system allows simultaneous quantification of 500 distinct analytes in samples arrayed in the wells of a 384-well plate. […]
MCF7 cells were treated with small molecules and corresponding vehicles in 384-well plates. […] The captured amplicons were labeled with phycoerythrin and the resulting microsphere populations were analyzed using a FlexMAP 3D instrument in accordance with the manufacturer's instructions. […]

[3] = tested on: histone-deacetylase (HDAC) inhibitor query signature; assay: Original Connectivity Map (Affymetrix microarrays) queried with an HDAC-inhibitor query signature; format: cell-based, human; details: published HDAC-inhibitor query signature (Glaser et al.), n=12, p-value<0.001, highest score
From the text: The term “Connectivity Map” as used herein, refers to a public database of transcriptome-wide gene-expression profiles derived from cultured human cells treated with a plurality of perturbagens, and pattern-matching algorithms for the scoring and identification of significant similarities between those profiles and external gene-expression data, as described by Lamb et al., “The Connectivity Map: using gene-expression signatures to connect small molecules, genes and disease”. Science 313:1929 (2006). Build02 of the Connectivity Map contains 7,056 full-transcriptome gene-expression profiles generated with Affymetrix high-density oligonucleotide microarrays representing the biological effects of 1,309 small-molecule perturbagens, and is available at broadinstitute.org/cmap.
The term “enrichment score” as used herein, refers to a measure of the similarity of the biological effects of a perturbagen used to generate a query signature with those of a perturbagen represented in the Connectivity Map based upon the gene-expression profiles of multiple independent treatments with that perturbagen. […]

Row | Compound | GSEA score of the BIOCARTA_NFKB_PATHWAY gene set (23 members) [1] | enrichment score [2] | enrichment score [3]
1 | lipopolysaccharide [LPS] | highest score of all gene sets tested | – | –
2 | O=C(CCCCCCC(=O)Nc1ccccc1)NO [vorinostat] | – | 0.921 | 0.973
